Test systems include HCC 2998; SF-268; UO-31; OVCAR-8; SK-MEL-2; 786-0; HOP-62; ACHN; NCI-H226; SN12C; NCI-H23; A498; HCT-15; M14; SNB-19; TK-10; NCI-H522; SNB-75; A549; COLO 205.
Assay in all cases: NCI-60 cell line screen, 48 h

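Protocol summary: plate cells (96-well), add compound at 5 concentrations, incubate 48 h, interpolate endpoints linearly. GI50 is the concentration that inhibits growth by half.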 Activity calls are given as the source filed them. Cut-off read from the data, not from the text of the source: active = GI50 up to about 1.1 µM and inactive = higher. Some results are limits rather than exact numbers.

As to `C/C=C/C(C#N)O[Si](C)(C)C` (centres undefined), the GI50 in the test on HCC 2998, in the test on SF-268, in the test with UO-31, with OVCAR-8, in the test with SK-MEL-2 and in the test with 786-0 was > 100 µM (inactive) throughout. Besides, the GI50 in the test on HOP-62, in the test on ACHN, in the test on NCI-H226, in the test on SN12C, in the test with NCI-H23 and in the test with A498 was > 100 µM (inactive) throughout. For the same molecule, the GI50 in the test with HCT-15 is greater than 100 µM; in the test with M14, > 100 µM (inactive); with SNB-19, > 100 µM (inactive); in the test with TK-10 it was > 100 µM (inactive); in the test on NCI-H522 it was > 100 µM (inactive); in the test on SNB-75, > 100 µM (inactive). Besides, the GI50 in the test on A549 and in the test with COLO 205 was > 100 µM (inactive) throughout.

As to `Cc1cc(S(=O)(=O)Nc2nncn2-c2ccc(Cl)cc2)c(S)cc1Cl`, the GI50 in the test with HCC 2998, in the test on SF-268, in the test on OVCAR-8, in the test with SK-MEL-2, in the test on 786-0 and with HOP-62 was > 10 µM (inactive) in each case. In addition, the GI50 with ACHN is > 10 µM (inactive); with NCI-H226, > 10 µM (inactive); in the test on SN12C, > 10 µM (inactive); with NCI-H23, > 10 µM (inactive); in the test with A498 it was > 10 µM (inactive); in the test on HCT-15, greater than 10 µM. For the same molecule, the GI50 with M14, with SNB-19, in the test on TK-10, with NCI-H522, in the test with SNB-75 and in the test on A549 was > 10 µM (inactive) throughout. Also, the GI50 with COLO 205 was > 10 µM (inactive).

Regarding `CCOC(=O)C1C(=O)CN2CCc3c([nH]c4ccccc34)C12C(=O)OCC` (centres undefined), the GI50 with HCC 2998, in the test with SF-268, with UO-31, with OVCAR-8, in the test with SK-MEL-2 and with 786-0 was > 100 µM (inactive) throughout. Also, the GI50 with HOP-62, with ACHN, with NCI-H226, in the test on SN12C, in the test with NCI-H23 and in the test with A498 was > 100 µM (inactive) in each case. The GI50 was greater than 100 µM in the test on HCT-15; > 100 µM (inactive) with M14; > 100 µM (inactive) in the test with SNB-19; > 100 µM (inactive) with TK-10; > 100 µM (inactive) in the test on NCI-H522; > 100 µM (inactive) with SNB-75. In addition, the GI50 in the test with A549 and with COLO 205 was > 100 µM (inactive) each time.

Take `O=C1c2sc(-c3ccc(F)cc3)cc2-n2cccc21`: the GI50 was 29.2 µM (inactive) in the test with HCC 2998; 19.9 µM (inactive) with SF-268; 22.5 µM (inactive) in the test with UO-31; 27.6 µM (inactive) in the test on OVCAR-8; > 100 µM (inactive) in the test with SK-MEL-2; 16.9 µM (inactive) in the test with 786-0. For the same molecule, the GI50 was 17 µM (inactive) in the test with HOP-62; 29.9 µM (inactive) with ACHN; 24.4 µM (inactive) in the test on NCI-H226; 19.4 µM (inactive) with SN12C; 23.3 µM (inactive) in the test on A498; 51.3 µM with HCT-15. The GI50 is 38.1 µM (inactive) in the test on M14; 16.7 µM (inactive) in the test with SNB-19; 21.9 µM (inactive) with TK-10; 34.8 µM (inactive) in the test with NCI-H522; 18.4 µM (inactive) with SNB-75; 26 µM (inactive) in the test with A549. Moreover, in the test with COLO 205, the GI50 was 48 µM (inactive).

Consider `O=[N+]([O-])/C=C/c1cn(CCCCCCCCn2cc(/C=C/[N+](=O)[O-])c3ccccc32)c2ccccc12`, for which the GI50 in the test on HCC 2998 was 7.59 µM (inactive); in the test with SF-268 it was > 10 µM (inactive); with UO-31 it was > 10 µM (inactive); in the test on OVCAR-8 it was > 10 µM (inactive); in the test on SK-MEL-2, > 10 µM (inactive); with 786-0 it was > 10 µM (inactive). Moreover, the GI50 in the test on HOP-62, in the test on ACHN, with NCI-H226, in the test on SN12C, in the test on NCI-H23 and in the test on A498 was > 10 µM (inactive) throughout. For the same molecule, the GI50 with HCT-15 was greater than 10 µM; in the test on M14, > 10 µM (inactive); with SNB-19, > 10 µM (inactive); in the test with TK-10 it was > 10 µM (inactive); in the test on NCI-H522, > 10 µM (inactive); in the test with SNB-75, > 10 µM (inactive). The GI50 in the test on A549 and with COLO 205 was > 10 µM (inactive) in each case.

Regarding `CC(C)(C)c1ccc(-n2c3nc(=O)n(-c4ccccc4CO)c(=O)c-3cc3ccccc32)cc1`, the GI50 in the test with HCC 2998 is 38 µM (inactive); in the test on SF-268, 40.6 µM (inactive); in the test on UO-31 it was 42.1 µM (inactive); in the test on OVCAR-8 it was 55.3 µM (inactive); with SK-MEL-2 it was > 10 µM (inactive); in the test on 786-0, 87.1 µM (inactive). The GI50 in the test on ACHN is 69.7 µM (inactive); with NCI-H226, 28 µM (inactive); with SN12C it was 57.7 µM (inactive); in the test with NCI-H23 it was 53.1 µM (inactive); in the test with A498 it was > 100 µM (inactive); with HCT-15, 48.4 µM. Moreover, the GI50 in the test with M14 is 42.8 µM (inactive); in the test with SNB-19, 74.8 µM (inactive); in the test with TK-10, 61.5 µM (inactive); in the test on NCI-H522, 32.7 µM (inactive); with SNB-75 it was 26.2 µM (inactive); in the test with A549, 76.2 µM (inactive). In the test on COLO 205, the GI50 is 46.5 µM (inactive).

For the molecule `Cc1ccc(-c2nnc3s/c(=C\c4ccc(N(C)C)cc4)c(=O)n23)cc1`, the GI50 with HCC 2998, in the test with SF-268, in the test with UO-31, in the test with OVCAR-8, in the test on SK-MEL-2 and in the test with 786-0 was > 100 µM (inactive) each time. Also, the GI50 with HOP-62 was > 100 µM (inactive); in the test on ACHN, > 100 µM (inactive); in the test with NCI-H226, > 100 µM (inactive); in the test with SN12C, > 100 µM (inactive); with NCI-H23, > 100 µM (inactive); with A498, 89.9 µM (inactive). The GI50 with M14 was > 100 µM (inactive); in the test on SNB-19, > 100 µM (inactive); in the test on TK-10 it was > 100 µM (inactive); in the test on NCI-H522, > 100 µM (inactive); in the test with SNB-75, 65.2 µM (inactive); in the test with A549, > 100 µM (inactive). Further, the GI50 in the test with COLO 205 was > 100 µM (inactive).

Regarding `CC(=O)c1cccc(NC(=O)C(=O)C(C(=O)c2ccccc2F)C2OC(=O)c3ccccc32)c1` (centres undefined), the GI50 was 24.1 µM (inactive) in the test on HCC 2998; 34.3 µM (inactive) with SF-268; 34.4 µM (inactive) in the test with UO-31; 31.8 µM (inactive) in the test on OVCAR-8; 29.8 µM (inactive) in the test on SK-MEL-2; 61.7 µM (inactive) in the test on HOP-62. The GI50 with ACHN was 37.7 µM (inactive); in the test with NCI-H226, 19.1 µM (inactive); with SN12C, 27.1 µM (inactive); in the test on NCI-H23, 33.8 µM (inactive); in the test with A498 it was 91.6 µM (inactive); in the test on HCT-15 it was 30.2 µM. The GI50 was 92.7 µM (inactive) in the test with M14; 32.1 µM (inactive) in the test on SNB-19; > 100 µM (inactive) with TK-10; 19.4 µM (inactive) with NCI-H522; 25.8 µM (inactive) in the test with SNB-75; 54.8 µM (inactive) in the test with A549. Besides, the GI50 with COLO 205 was 18.6 µM (inactive).

`CN(C)C(=S)SCC(N)=O`: the GI50 in the test with HCC 2998, in the test on SF-268, with OVCAR-8, with SK-MEL-2, in the test with 786-0 and with HOP-62 was > 100 µM (inactive) throughout. For the same molecule, the GI50 in the test on ACHN is > 100 µM (inactive); in the test with NCI-H226, 45.3 µM (inactive); in the test on SN12C, > 100 µM (inactive); in the test on NCI-H23 it was > 100 µM (inactive); in the test with A498, > 100 µM (inactive); in the test with HCT-15, greater than 100 µM. For the same molecule, the GI50 with M14 was > 100 µM (inactive); in the test on SNB-19, > 100 µM (inactive); in the test on TK-10, > 100 µM (inactive); with NCI-H522, > 100 µM (inactive); with SNB-75, < 0.01 µM (active); in the test on A549, > 100 µM (inactive). The GI50 with COLO 205 was > 100 µM (inactive).

On to `COC(=O)C1CCC(=O)N1C(c1ccc2c(c1)OCO2)c1cc(OC)c(OC)c(OC)c1` (centres undefined), for which the GI50 in the test with HCC 2998, in the test with SF-268, in the test with UO-31, in the test on OVCAR-8, with SK-MEL-2 and with 786-0 was > 100 µM (inactive) throughout. Further, the GI50 in the test with HOP-62, in the test with ACHN, in the test on NCI-H226, in the test with SN12C, with NCI-H23 and in the test on A498 was > 100 µM (inactive) in each case. Further, the GI50 in the test on HCT-15 is greater than 100 µM; with M14 it was > 100 µM (inactive); with SNB-19, > 100 µM (inactive); in the test on TK-10 it was > 100 µM (inactive); in the test with NCI-H522, 6.35 µM (inactive); with SNB-75 it was > 100 µM (inactive). In addition, the GI50 in the test with A549 and in the test with COLO 205 was > 100 µM (inactive) throughout.

These data come from ChEMBL document CHEMBL1201862, “PubChem BioAssay data set” (2004).
